# Tests used:
# [1] = test system: mice fed high fat diet (HFD); conditions: mice fed HFD containing 0.5% cholic acid vs HFD alone; cited from earlier work
# human TGR5 = target: T1, human TGR5 (Homo sapiens, UniProt Q8TDU6); test: cAMP production assay in HEK293-TGR5 cells; assay type: cell-based; conditions: HEK293 cells stably expressing human TGR5; 30 minutes stimulation; LANCE cAMP TR-FRET; read-out: cAMP Production in 293-TGR5 Cells EC50
# T1 construct: expressed in transfected cells; host or cells: HEK-293 cells, stably transfected (pcDNA 3.1, Fugene6, geneticin selection)
# T1 sequence (Q8TDU6 1-330): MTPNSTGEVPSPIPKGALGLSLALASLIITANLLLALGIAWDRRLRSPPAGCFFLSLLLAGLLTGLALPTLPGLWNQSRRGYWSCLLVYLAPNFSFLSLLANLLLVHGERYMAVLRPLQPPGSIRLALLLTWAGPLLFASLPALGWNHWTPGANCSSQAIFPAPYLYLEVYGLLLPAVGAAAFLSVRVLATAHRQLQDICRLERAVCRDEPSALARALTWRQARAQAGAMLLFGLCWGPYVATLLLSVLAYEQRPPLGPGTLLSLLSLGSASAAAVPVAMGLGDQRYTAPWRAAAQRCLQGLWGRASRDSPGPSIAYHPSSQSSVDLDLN
Compound,EC50 (human TGR5) [µM],also measured
C[C@H](CCC(=O)O)[C@H]1CC[C@H]2[C@@H]3[C@H](O)C[C@@H]4C[C@H](O)CC[C@]4(C)[C@H]3C[C@H](O)[C@]12C [cholic acid],–,Food intake [1]: no difference between the two groups; Weight gain [1]: gained less weight than control mice on HFD alone
"COc1ccc2cc(CNCc3ccco3)c(-c3ccsc3)nc2c1 [Example 78, 1-(Furan-2-yl)-N-((7-methoxy-2-(thiophen-3-yl)quinolin-3-yl)methyl)methanamine]",< 10,–
"FC(F)(F)c1ccc(CNCc2cc3ccccc3nc2-c2ccsc2)cc1 [Example 28, 1-(2-(Thiophen-3-yl)quinolin-3-yl)-N-(4-(trifluoromethyl)benzyl)-methanamine]",< 10,–
"COc1ccc2cc(CNCc3ccc(C(F)(F)F)cc3)c(-c3nccs3)nc2c1 [Example 30, 1-(7-methoxy-2-(thiazol-2-yl)quinolin-3-yl)-N-(4-(trifluoromethyl)benzyl)methanamine]",> 10,–
"Cc1cccc2cc(CNCCc3ccc(Cl)cc3)c(-c3ccsc3)nc12 [Example 4, 2-(4-Chlorophenyl)-N-((8-methyl-2-(thiophen-3-yl)quinolin-3-yl)methyl)ethanamine]",> 10,–
"COc1ccc2cc(CNCCc3ccc(Cl)cc3)c(-c3nccs3)nc2c1 [Example 31, 2-(4-Chlorophenyl)-N-((7-methoxy-2-(thiazol-2-yl)quinolin-3-yl)methyl)ethanamine]",> 10,–
"FC(F)(F)c1ccc(CNCc2cc3ccc(Cl)cc3nc2-c2ccsc2)cc1 [Example 41, 1-(7-Chloro-2-(thiophen-3-yl)quinolin-3-yl)-N-(4-(trifluoromethyl)benzyl)methanamine]",> 10,–
"COc1ccc2cc(CNCc3cnc(C)cn3)c(-c3ccsc3)nc2c1 [Example 71, 1-(7-Methoxy-2-(thiophen-3-yl)quinolin-3-yl)-N-((5-methylpyrazin-2-yl)methyl)methanamine]",< 10,–
"COc1ccc2cc(CNC(C)Cc3ccc(Br)cc3)c(-c3ccsc3)nc2c1 (centres unmarked) [Example 145, 1-(4-Bromophenyl)-N-((7-methoxy-2-(thiophen-3-yl)quinolin-3-yl)methyl)propan-2-amine]",> 10,–
"Cc1ccc2cc(CNCc3ccc(C(F)(F)F)cc3)c(-c3ccsc3)nc2c1 [Example 44, 1-(7-Methyl-2-(thiophen-3-yl)quinolin-3-yl)-N-(4-(trifluoromethyl)benzyl)methanamine]",< 10,–
"COc1ccc2cc(CNCCc3ccc(Cl)cc3)c(-c3ncco3)nc2c1 [Example 38, 2-(4-Chlorophenyl)-N-((7-methoxy-2-(oxazol-2-yl)quinolin-3-yl)methyl)ethanamine]",< 10,–
"Cc1cccc2cc(CNCc3ccc(C(F)(F)F)cc3)c(-c3ccsc3)nc12 [Example 5, 1-(8-Methyl-2-(thiophen-3-yl)quinolin-3-yl)-N-(4-(trifluoromethyl)benzyl)methanamine]",< 10,–
"COc1ccc2cc(CNCc3ccc(OC(F)(F)F)cc3)c(-c3cccnc3)nc2c1 [Example 10, 1-(7-Methoxy-2-(pyridin-3-yl)quinolin-3-yl)-N-(4-(trifluoromethoxy)benzyl)methanamine]",> 10,–
"COc1ccc2cc(CNCc3ccc(C(C)(C)C)cc3)c(-c3ccncc3)nc2c1 [Example 75, N-(4-tert-Butylbenzyl)-1-(7-methoxy-2-(pyridin-4-yl)quinolin-3-yl)methanamine]",< 10,–

# The next lines start with results.
EC50 (human TGR5) [µM],Compound,also measured
> 10,"Oc1ccc2cc(CCNCc3ccc(C(F)(F)F)cc3)c(-c3ccsc3)nc2c1 [Example 107, 2-(Thiophen-3-yl)-3-(2-(4-(trifluoromethyl)benzylamino)ethyl)quinolin-7-ol]",–
< 10,"COc1ccc2cc(CNCc3ccc(F)c(Cl)c3)c(-c3ccncc3)nc2c1 [Example 92, N-(3-Chloro-4-fluorobenzyl)-1-(7-methoxy-2-(pyridin-4-yl)quinolin-3-yl)methanamine]",–
> 10,"CC(NCCc1ccc(Br)cc1)c1cc2ccc(O)cc2nc1-c1ccsc1 (racemic) [Example 144, (±)-3-(1-(4-Bromophenethylamino)ethyl)-2-(thiophen-3-yl)quinolin-7-ol]",–
< 10,"N#Cc1ccc2cc(CNCCc3ccc(Br)cc3)c(-c3ccsc3)nc2c1 [Example 136, 3-((4-Bromophenethylamino)methyl)-2-(thiophen-3-yl)quinoline-7-carbonitrile]",–
< 10,"C[C@H](NCc1cc2ccc(O)cc2nc1-c1ccsc1)c1ccc(Br)cc1 [Example 135, (S)-3-((1-(4-Bromophenyl)ethylamino)methyl)-2-(thiophen-3-yl)quinolin-7-ol]",–
> 10,"Oc1ccc2cc(CNCCc3ccc(Br)cc3)c(-c3cccs3)nc2c1 [Example 108, 3-((4-Bromophenethylamino)methyl)-2-(thiophen-2-yl)quinolin-7-ol]",–
> 10,"COc1ccc2c(C)c(CNCCc3ccc(Br)cc3)c(-c3ccsc3)nc2c1 [Example 129, 2-(4-Bromophenyl)-N-((7-methoxy-4-methyl-2-(thiophen-3-yl)quinolin-3-yl)methyl)ethanamine]",–
< 10,"Sc1ccc2cc(CNCCc3ccc(Br)cc3)c(-c3ccsc3)nc2c1 [Example 114, 3-((4-Bromophenethylamino)methyl)-2-(thiophen-3-yl)quinoline-7-thiol]",–
< 10,"NC(=O)c1ccc2cc(CNCCc3ccc(Br)cc3)c(-c3ccsc3)nc2c1 [Example 139, 3-((4-Bromophenethylamino)methyl)-2-(thiophen-3-yl)quinoline-7-carboxamide]",–
< 10,"COc1cc2cc(CNCCc3ccc(Br)cc3)c(-c3ccsc3)nc2cc1C [Example 131, 2-(4-Bromophenyl)-N-((6-methoxy-7-methyl-2-(thiophen-3-yl)quinolin-3-yl)methyl)ethanamine]",–
< 10,"Oc1ccc2cc(CNCc3ccc(C(F)(F)F)cc3)c(-c3ccsc3)nc2c1 [Example 79, 2-(Thiophen-3-yl)-3-((4-(trifluoromethyl)benzylamino)methyl)quinolin-7-ol]",–

# Source: patent publication US20080221161A1, “HETEROCYCLIC MODULATORS OF TGR5 FOR TREATMENT OF DISEASE” (KALYPSYS, INC., priority 2007, published 2008)
